Test system: healthy ICR mice
Assay: glucose tolerance test in fasted ICR mice (in vivo hypoglycemic model), serum glucose by glucose oxidase method
Settings: ICR mice fasted 16 h, dosage 10 mg/kg in 1% sodium carboxymethylcellulose, 2 g/kg glucose i.p. 2 h after test compound (Dapagliflozin: 1.5 h); for blood glucose at 0.5 h: serum 0.5 h after glucose; for blood glucose at 1 h: serum 1 h after glucose; for blood glucose at 2 h: serum 2 h after glucose; for blood glucose at 3 h: serum 3 h after glucose; for blood glucose at 4 h: serum 4 h after glucose
Procedure: A suspension of the test compounds with […] was prepared by dissolving the sample in 1% sodium carboxymethylcellulose solution. The administration dosage is 0.2 ml/20 g body weight, which equals to a dosage of 10 mg/kg.
Female and male of healthy ICR mice are half to half, and the weight is 20-24 g, in accordance with standard level one. Animals were fasted for 16 hours. 2 g/kg glucose in saline was intraperitoneally injected 2 hours after the test compounds (for Dapagliflozin, glucose was injected 1.5 hours after medicine), and blood samples were collected from mice tall vein using capillary at fixed times of 0.5 h, 1 h, 2 h, 3 h and 4 h after challenging with glucose. The sera were separated using centrifugation. The glucose oxidase method was used to measure glucose content of serum at different time points.

Compound	blood glucose at 0.5 h	blood glucose at 1 h	blood glucose at 2 h	blood glucose at 3 h	blood glucose at 4 h
CCOc1ccc(Cc2cc([C@@H]3O[C@H](CO)[C@@H](O)[C@H](O)[C@H]3O)ccc2Cl)cc1 [Dapagliflozin, reference compound]	277.1 ± 42.4 mg/dL	172.1 ± 34.1 mg/dL	92.1 ± 21.1 mg/dL	81.3 ± 20.1 mg/dL	60.0 ± 11.0 mg/dL
CCOc1ccc(C(F)c2cc([C@@H]3O[C@H](CO)[C@@H](O)[C@H](O)[C@H]3O)ccc2Cl)cc1 (stereo partly drawn) [Example 1, 1-{4-chloro-3-[(4-ethyoxyphenyl)fluoromethyl]phenyl}-1-deoxy-β-D-glucopyranose]	194.1 ± 41.3 mg/dL	161.1 ± 35.4 mg/dL	97.3 ± 31.2 mg/dL	69.1 ± 22.1 mg/dL	67.2 ± 17.1 mg/dL
CCOc1ccc(C(C)(C)c2cc([C@@H]3O[C@H](CO)[C@@H](O)[C@H](O)[C@H]3O)ccc2Cl)cc1 [Example 16, 1-{4-chloro-3-[(dimethyl)(4-ethyoxyphenyl)methyl]phenyl}-1-deoxy-β-D-glucopyranose]	157.1 ± 21.3 mg/dL	137.0 ± 27.7 mg/dL	102.4 ± 17.5 mg/dL	88.1 ± 32.2 mg/dL	70.3 ± 14.2 mg/dL
CCOc1ccc(C(C)c2cc([C@@H]3O[C@H](CO)[C@@H](O)[C@H](O)[C@H]3O)ccc2Cl)cc1 (stereo partly drawn) [Example 36, 1-{4-chloro-3-[1-(4-ethyoxyphenyl)ethyl]phenyl}-1-deoxy-β-D-glucopyranose]	189.1 ± 21.2 mg/dL	120.1 ± 10.2 mg/dL	113.0 ± 11.0 mg/dL	74.6 ± 21.0 mg/dL	69.1 ± 13.2 mg/dL
CCOc1ccc(C(C)(OC)c2cc([C@@H]3O[C@H](CO)[C@@H](O)[C@H](O)[C@H]3O)ccc2Cl)cc1 (stereo partly drawn) [Example 51, 1-{4-chloro-3-[1-(4-ethyoxyphenyl)-1-methoxyethyl]phenyl}-1-deoxy-β-D-glucopyranose]	250.5 ± 33.1 mg/dL	158.2 ± 20.6 mg/dL	123.2 ± 33.1 mg/dL	101.2 ± 11.7 mg/dL	75.5 ± 21.4 mg/dL
CCOc1ccc(C(C)(F)c2cc([C@@H]3O[C@H](CO)[C@@H](O)[C@H](O)[C@H]3O)ccc2Cl)cc1 (stereo partly drawn) [Example 52, 1-{4-chloro-3-[1-(4-ethyoxyphenyl)-1-fluoroethyl]phenyl}-1-deoxy-β-D-glucopyranose]	209.3 ± 30.4 mg/dL	175.1 ± 20.5 mg/dL	158.6 ± 31.1 mg/dL	101.2 ± 12.4 mg/dL	80.0 ± 13.2 mg/dL
CCOc1ccc(C(OC)c2cc([C@@H]3O[C@H](CO)[C@@H](O)[C@H](O)[C@H]3O)ccc2Cl)cc1 (stereo partly drawn) [Example 53, 1-{4-chloro-3-[1-(4-ethyoxyphenyl)(methoxyl)methyl]phenyl}-1-deoxy-β-D-glucopyranose]	199.0 ± 21.3 mg/dL	171.4 ± 36.1 mg/dL	110.2 ± 20.8 mg/dL	93.0 ± 17.7 mg/dL	69.6 ± 17.3 mg/dL
